How the values were obtained:
Assay type in all cases: in vivo
Tetranychus urticae [1] = assay: Prevention/extermination test against Tetranychus urticae (0.8 ppm); conditions: 312 h, 0.8 ppm active ingredient, soybean seedlings inoculated with imago, 25° C., after 13 days, read-out: prevention/extermination titer
Experimental: (§1) The wettable powder prepared according to the above Preparation Example 2 was diluted with water to a concentration of 500 ppm as a concentration of active ingredient. Soybean seedlings which had previously been inoculated with the imago of Tetranychus urticae were soaked in the test solution, then air dried. The treated soybean seedlings were left at the constant temperature of 25° C. After 13 days from the treatment, the number of surviving mites was counted, and the prevention/extermination titer was calculated according to the formula 2 below.
The wettable powder prepared according to the above Preparation Example 2 was diluted with water to a concentration of 0.8 ppm as a concentration of active ingredient. The same experiment as in Test Example 2 was carried out, and the prevention/extermination titer was calculated according to the formula 2.
(§2) In this test, representative compounds having the acaricidal effect with more than 90 of prevention/extermination titer include compound No. 63, 93, 77, 81, 105, 169, 190, 196 and 208.

Nilaparvata lugenis = assay: Insecticidal test for Nilaparvata lugenis; conditions: 144 h, 500 ppm active ingredient (wettable powder), 4-instar larvae on germinated rice paddy, 25° C., after 6 days, read-out: mortality rate
Experimental: The wettable powder prepared according to the above Preparation Example 2 was diluted with water to a concentration of 500 ppm as a concentration of active ingredient. After soaking the germinated rice paddy in the test solution, the paddy was transferred into a 60 ml volume of plastic cup. Ten (10) heads of 4-instar larvae of Nilaparvata lugenis were inoculated on the paddy and capped, then left at the constant temperature of 25° C. After 6 days from the inoculation, the number of surviving insects was counted, and mortality rate of the insect was calculated according to the following formula 1. mortality rate (%)=[(10−number of surviving insect in the test field)/10]×100 (1)

ddy mouse (Slc:ddy) = assay: Oral acute toxicity test; design: key: 0/3 means none of 3 recipient animals died; 1/3 means one out of 3 recipient animals died; 2/3 means 2 out of 3 recipient animals died; 3/3 means all 3 recipient animals died; conditions: oral 30 mg/kg, mortality investigated for 7 days; for Test result Female (mortality, animals died out of 3): female ddy mouse; for Test result Male (mortality, animals died out of 3): male ddy mouse
Experimental: Oral acute toxicity test was conducted according to the method described in the guideline in “Guideline for the Preparation of Test Report on the Toxicity Studies”, published by the Ministry of Agriculture, Forestry and Fisheries of Japan. Experimental animals, 3 each of male and female of 7 weeks aged ddy mouse (Slc:ddy), were obtained from SLC Japan Inc. The compounds of the present invention and the reference substances were suspended in 0.5% sodium carboxymethyl cellulose or corn oil to give a 30 (mg/kg) equivalent amount for a dosage of 10 ml per 1 kg of body weight. The suspensions were inoculated using a sonde directly into the stomach of test animals which were fasted for 3 hours before inoculation. The test animals were fasted for additional 3 hours after inoculation, and the mortality of the inoculated animal was investigated for 7 days. In this table, 0/3 means none of 3 recipient animals died, 1/3 means one out of 3 recipient animals died, 2/3 means 2 out of 3 recipient animals died, 3/3 means all 3 recipient animals died.

Tetranychus urticae [2] = assay: Prevention/extermination test against Tetranychus urticae (500 ppm); conditions: 312 h, 500 ppm active ingredient, soybean seedlings inoculated with imago, 25° C., after 13 days, read-out: prevention/extermination titer (preventive titer)
Experimental: as §1, §2

CC(CCOC(=O)c1sc(C2CCCCC2)nc1C)=C(F)F [Compound 169, 4,4-difluoro-3-methyl-3-butenyl 2-cyclohexyl-4-methylthiazole-5-carboxylate]
pest or weed control at 0.8 ppm (Tetranychus urticae [1]): > 90% | mortality at 500 ppm (Nilaparvata lugenis): ≥ 90%

CCCCOc1ncc(C(=O)OCCC(C)=C(F)F)c(C)n1 [Compound 105, 4,4-difluoro-3-methyl-3-butenyl 2-butoxy-4-methyl-pyrimidine-5-carboxylate]
Test result Female (mortality, animals died out of 3) (ddy mouse (Slc:ddy)): 0/3 | Test result Male (mortality, animals died out of 3) (ddy mouse (Slc:ddy)): 0/3 | pest or weed control at 0.8 ppm (Tetranychus urticae [1]): > 90%

CCCCn1ncc(C(=O)OCCC(C)=C(F)F)c1C [Compound 203, 4,4-difluoro-3-methyl-3-butenyl 1-butyl-5-methyl-1H-pyrazole-4-carboxylate]
pest or weed control at 500 ppm (Tetranychus urticae [2]): > 90%

CC(CCCCOC(=O)c1cc2ccccc2cn1)=C(F)F [Compound 27, 6,6-difluoro-5-methyl-5-hexenyl isoquinoline-3-carboxylate]
pest or weed control at 500 ppm (Tetranychus urticae [2]): > 90%

CC(CCOC(=O)c1cn(-c2ccccc2)nc1C)=C(F)F [Compound 196, 4,4-difluoro-3-methyl-3-butenyl 3-methyl-1-phenyl-1H-pyrazole-4-carboxylate]
pest or weed control at 0.8 ppm (Tetranychus urticae [1]): > 90%

CC(CCOC(=O)c1sc(-c2ccccc2)nc1C)=C(F)F [Compound 63, 4,4-difluoro-3-methyl-3-butenyl 4-methyl-2-phenyl-thiazole-5-carboxylate]
Test result Female (mortality, animals died out of 3) (ddy mouse (Slc:ddy)): 0/3 | Test result Male (mortality, animals died out of 3) (ddy mouse (Slc:ddy)): 0/3 | pest or weed control at 0.8 ppm (Tetranychus urticae [1]): > 90%

CC(CCCCOC(=O)c1c(-c2ccccc2)noc1C)=C(F)F [Compound 12, 6,6-difluoro-5-methyl-5-hexenyl 5-methyl-3-phenyl-isoxazole-4-carboxylate]
pest or weed control at 500 ppm (Tetranychus urticae [2]): > 90%

CC(CCCCOC(=O)c1n[nH]c2ccccc12)=C(F)F [Compound 33, 6,6-difluoro-5-methyl-5-hexenyl 1H-indazole-3-carboxylate]
pest or weed control at 500 ppm (Tetranychus urticae [2]): > 90% | mortality at 500 ppm (Nilaparvata lugenis): ≥ 90%

CC(CCOC(=O)c1cnc(-c2ccccc2)s1)=C(F)F [Compound 190, 4,4-difluoro-3-methyl-3-butenyl 2-phenylthiazole-5-carboxylate]
pest or weed control at 0.8 ppm (Tetranychus urticae [1]): > 90%

CC(CCCCOC(=O)c1ccc2nsnc2c1)=C(F)F [Compound 42, 6,6-difluoro-5-methyl-5-hexenyl benzo[1,2,5]-thiadiazole-5-carboxylate]
pest or weed control at 500 ppm (Tetranychus urticae [2]): > 90%

CCN(c1ccc(C)cc1)c1nc(C)c(C(=O)OCCC(C)=C(F)F)s1 [Compound 185, 4,4-difluoro-3-methyl-3-butenyl 2-(N-ethyl-N-4-tolylamino)-4-methylthiazole-5-carboxylate]
pest or weed control at 500 ppm (Tetranychus urticae [2]): > 90%

CC(CCCCOC(=O)c1cc2ccccc2o1)=C(F)F [Compound 7, 6,6-difluoro-5-methyl-5-hexenyl benzo[b]furan-2-carboxylate]
pest or weed control at 500 ppm (Tetranychus urticae [2]): > 90%

CC(CCOC(=O)c1ccc(OC2CCCC2)nc1)=C(F)F [Compound 81, 4,4-difluoro-3-methyl-3-butenyl 6-cyclopentyloxy-nicotinate]
Test result Female (mortality, animals died out of 3) (ddy mouse (Slc:ddy)): 0/3 | Test result Male (mortality, animals died out of 3) (ddy mouse (Slc:ddy)): 0/3 | pest or weed control at 0.8 ppm (Tetranychus urticae [1]): > 90%

CC(CCCCOC(=O)c1cnc2ccccc2n1)=C(F)F [Compound 32, 6,6-difluoro-5-methyl-5-hexenyl quinoxaline-2-carboxylate]
pest or weed control at 500 ppm (Tetranychus urticae [2]): > 90% | mortality at 500 ppm (Nilaparvata lugenis): ≥ 90%

CC(CCCCOC(=O)c1ccc2nn(CCCCC(C)=C(F)F)nc2c1)=C(F)F [Compound 31, 6,6-difluoro-5-methyl-5-hexenyl 2-(6,6-difluoro-5-methyl-5-hexenyl)-2H-benzotriazole-5-carboxylate]
pest or weed control at 500 ppm (Tetranychus urticae [2]): > 90%

CC(CCOC(=O)c1cc(-c2ccccc2)n(C)n1)=C(F)F [Compound 194, 4,4-difluoro-3-methyl-3-butenyl 1-methyl-5-phenyl-1H-pyrazole-3-carboxylate]
pest or weed control at 500 ppm (Tetranychus urticae [2]): > 90%

CC(CCOC(=O)c1cnc(-c2ccccc2)nc1C)=C(F)F [Compound 93, 4,4-difluoro-3-methyl-3-butenyl 4-methyl-2-phenyl-pyrimidine-5-carboxylate]
Test result Female (mortality, animals died out of 3) (ddy mouse (Slc:ddy)): 0/3 | Test result Male (mortality, animals died out of 3) (ddy mouse (Slc:ddy)): 0/3 | pest or weed control at 0.8 ppm (Tetranychus urticae [1]): > 90%

CCCCCc1cc(C(=O)OCCC(C)=C(F)F)n(C)n1 [Compound 208, 4,4-difluoro-3-methyl-3-butenyl 2-methyl-5-pentyl-2H-pyrazole-3-carboxylate]
pest or weed control at 0.8 ppm (Tetranychus urticae [1]): > 90%

CC(CCCCOC(=O)c1ccc2c(c1)ncn2CCCCC(C)=C(F)F)=C(F)F [Compound 35, 6,6-difluoro-5-methyl-5-hexenyl 1-(6,6-difluoro-5-methyl-5-hexenyl)-1H-benzoimidazole-5-carboxylate]
pest or weed control at 500 ppm (Tetranychus urticae [2]): > 90%

CCCCOc1ccc(C(=O)OCCC(C)=C(F)F)cn1 [Compound 77, 4,4-difluoro-3-methyl-3-butenyl 6-butoxynicotinate]
Test result Female (mortality, animals died out of 3) (ddy mouse (Slc:ddy)): 0/3 | Test result Male (mortality, animals died out of 3) (ddy mouse (Slc:ddy)): 0/3 | pest or weed control at 0.8 ppm (Tetranychus urticae [1]): > 90%

CC(CCCCOC(=O)c1c[nH]c2ccccc12)=C(F)F [Compound 13, 6,6-difluoro-5-methyl-5-hexenyl 1H-indole-3-carboxylate]
pest or weed control at 500 ppm (Tetranychus urticae [2]): > 90%

CC(CCCCOC(=O)c1cnnc2ccccc12)=C(F)F [Compound 37, 6,6-difluoro-5-methyl-5-hexenyl cinnoline-4-carboxylate]
pest or weed control at 500 ppm (Tetranychus urticae [2]): > 90%

— US7273878B2, “Difluoroalkene derivative, pest control agent containing the same, and intermediate therefor” (Kumiai Chemical Industry Co., Ltd., priority 2001, dated 2007)
